The subject of data set [1] is 11-cis-retinol biosynthesis (IMH activity) in retinal pigment epithelial membrane system. Put plainly: Effect on 11-cis-retinol biosynthesis (IMH activity) in RPE membranes. Format: biochemical, bovine. Here is the method:
A control reaction mixture without any inhibitor was also incubated at room temperature for 15 min. At the end of the min incubation, all-trans-retinol [11-12-^3H2] (0.2 μM) was added to the reaction mixtures (100 mM Tris pH 8.0, […] of RPE protein, 0.2% BSA 100 μM of DPPC, 1 mM of DTT and 0.2 μM all-trans-retinol [11-12-^3H2]) and incubated at room temperature for 30 min. At the end of this 30 minutes of incubation, an aliquot of the reactions were quenched to verify the equal addition of all-trans-retinol [11,12-^3H2] and the effect of these inhibitors on LRAT. After this the control reaction mixture was incubated with atRA (60 & 6 μM), 13cRA (60 & 6 μM) or 4-HPR (60 & 6 μM) for 15 min. Now all the reaction mixtures were incubated with 30 μM of apo-rCRALBP (100 mM Tris pH 8.0, 7.7 μg of RPE protein, 0.2% BSA 100 μM of DPPC, 1 mM of DTT 30 μM apo-rCRALBP and 0.2 μM all-trans-retinol [11-12-^3H2]) at 37° C. for 30 minutes. At the end of this incubation period the 200 μL reaction mixture was quenched by the addition of 750 μL ice cold methanol after which 100 μL of 1M sodium chloride solution was added, and 500 μl hexane (containing butylated hydroxy toluene at 1 mg/mL) was added to effect extraction of the retinoids. The retinoids were analyzed as previously described (27). The amount of 11-cis-retinol formed was used as a measurement of IMH activity. All experiments were performed in triplicate and the average values of these measurements were used for analysis.
A control reaction mixture without any inhibitor was also incubated at room temperature for 15 min. At the end of the min incubation, all-trans-retinol [11-12-^3H2] (0.2 μM) was added to the reaction mixtures (100 mM Tris pH 8.0, 76.7 μg of RPE protein, 0.2% BSA 100 μM of DPPC, 1 mM of DTT and 0.2 μM all-trans-retinol [11-12-^3H2]) and incubated at room temperature for 30 min. […] The retinoids were analyzed as previously described (27). […]

The next data set deals with T1, RPE65 (Bos taurus, UniProt Q28175).
T1 construct: Frozen bovine eyecups devoid of retinas were purchased from W. L. Lawson Co; tissue W. L. Lawson Co; host or cells: bovine eyecups (retinal pigment epithelium)
The data set is described as follows: Fluorescence binding assay of retinoids and analogs to purified RPE65. Further details: species or system bovine. Here is the method:
Purification of mRPE65, sRPE65 and rHRPE65: Purification was performed as described before (Ma et al., 2001). The purities of these proteins were verified by silver staining or Coomassie staining and Western blot (1:4000 primary antibody-1 h at room temperature and 1:4000 secondary antibody-0.5 h at room temperature).
(§1) Fluorescence binding assays: RPE65 in PBS, 1% CHAPS, pH 7.4 was used in the fluorometric titration studies. Protein concentrations were measured by a modified Lowry method (Lowry et al., 1951). All titrations were performed at 25° C. The samples in PBS buffer were excited at 280 nm and the fluorescence was scanned from 300 to 500 nm. Fluorescence measurements, using 450 μL quartz cuvettes with a 0.5 cm path length, were made at 25° C. on a Jobin Yvon Instruments, Fluoromax 2 employing the right-angle detection method.
(§2) The fluorescence of the protein solution was measured after equilibrating it at 25° C. for 10 min. The sample was then titrated with a solution of retinoid dissolved in dimethyl sulfoxide. In each titration, to a 250 μL solution of the protein an equal amount of retinoid, typically 0.2 μL. was added and thoroughly mixed before allowing it to equilibrate for 10 min prior to recording the fluorescence intensity. […] The binding constant (KD) was calculated from the fluorescence intensity by using the following equation (Gollapalli et al., 2003).
where P0=Total protein concentration,
n=number of independent binding sites, R0=Total retixioid concentration at each addition, KD=dissociation constant, Fmax=Fluorescence intensity at saturation, and F0=Initial fluorescence intensity.

For a further data set, the target named is mouse RPE65. Put plainly: Constants of affinity (Kds) for mouse RPE65. Format: binding. Particulars: read-out: Kd (constant of affinity) for mouse RPE65. Here is the method: as §1, §2
The constants of affinity (Kds) of several compounds for mouse RPE65 were determined. […] Thus, the potency of binding is a function of the ester chain length, i.e., the longer the chain length, the stronger the affinity for RPE65 is and the stronger the antagonist is.

Another data set deals with T2, sRPE65 (Bos taurus, UniProt Q28175).
T2 construct: Frozen bovine eyecups devoid of retinas were purchased from W. L. Lawson Co; tissue W. L. Lawson Co; host or cells: bovine eyecups (retinal pigment epithelium)
The data set is described as follows: Fluorescence binding of retinoids to purified sRPE65. Also noted: species or system bovine. The note with it: 0.37 μM sRPE65, phosphate buffered saline pH 7.4, 1% CHAPS. The procedure: as §1
The fluorescence of the protein solution was measured after equilibrating it at 25° C. for 10 min. […] In each titration, to a 250 μL solution of the protein an equal amount of retinoid, typically 0.2 μL. was added and thoroughly mixed before allowing it to equilibrate for 10 min prior to recording the fluorescence intensity. […] The binding constant (KD) was calculated from the fluorescence intensity by using the following equation (Gollapalli et al., 2003).
As mentioned above, membrane associated RPE65 (mRPE65) stereospecifically binds all-trans-retinyl palmitate. In this example, the binding of retinoids to sRPE65 is measured by the fluorescence methodology already described (Gollapalli, D. R., Maiti, P., Rando, R. R. (2003) RPE65 operates in the vertebrate visual cycle by stereospecifically binding all-trans-retinyl esters. Biochemistry 42, 11824-30). […]

In another data set the target is T3, tLRAT (Homo sapiens, UniProt O95237).
T3 construct: This form of LRAT has the two N and C-terminal transmembrane domains of LRAT truncated; made in house
T3 sequence (O95237 31-196 limits assumed): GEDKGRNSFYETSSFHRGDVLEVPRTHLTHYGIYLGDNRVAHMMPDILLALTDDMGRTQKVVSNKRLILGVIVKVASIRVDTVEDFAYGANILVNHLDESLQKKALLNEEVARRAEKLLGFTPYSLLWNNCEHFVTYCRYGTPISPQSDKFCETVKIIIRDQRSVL
Put plainly: mRPE65 concentration-dependent esterification of vitamin A by tLRAT. Format: biochemical. Here is the method:
mRPE65 concentration-dependent esterification of vitamin A: The effect of mRPE65 concentration on the rates of all-trans-retinyl palmitate formation was determined by monitoring the tLRAT catalyzed formation of all-trans-retinyl palmitate from added [11,12-^3H2]-all-trans-retinol and mRPE65. It should be noted that all-trans-retinyl palmitate formed from mRPE65 and vitamin A was identified both by its mass spectroscopic and chromatographic properties. The reaction mixture (volume 0.1 mL) contains 100 mM Tris (pH 8.4), 5 μM of tLRAT 0.3% CHAPS, 1 mM dithiothreitol and 5 μM of all-trans-retinol [11,12-^3H2] and mRPE65 (0, 0.008, 0.02, 0.028, 0.04, 0.052, 0.06 and 0.08 μM) incubated for 10 min at room temperature. After 10 min the reaction was quenched with 500 μL methanol, 100 μL of water and 500 μL of hexane. The amount of all-trans-retinyl palmitate [11,12-^3H2] formed as determined by normal phase-HPLC and was used as a measure of activity. The kinetic parameters KM (Kapp) and N were calculated as described before (Segal 1993). Each experiment was done in triplicate, and the data points used are an average of these three points. […]
In these experiments, pure mRPE65 and vitamin A are incubated with LRAT and the resultant all-trans-retinyl palmitate is isolated by HPLC. […] Under the same conditions, no observable turnover of DPPC is measured (FIG. 11B).

The mark [2] stands for this setting: purified RPE65, PBS, 1% CHAPS, pH 7.4, 25° C., N=4, read-out: average KD for binding to RPE65.

Here are results for 5 molecules from patent US20080176952A1, “Management of Ophthalmologic Disorders, Including Macular Degeneration” (priority 2004, published 2008).

The Kd is the free concentration of one partner at which half of the binding sites on the other are occupied at equilibrium, for simple one-to-one binding. For orientation: Km means the concentration of substrate that gives half-maximal velocity.

Where two headings read alike, the source gives them in different places.

T1 sequence (Q28175 whole entry): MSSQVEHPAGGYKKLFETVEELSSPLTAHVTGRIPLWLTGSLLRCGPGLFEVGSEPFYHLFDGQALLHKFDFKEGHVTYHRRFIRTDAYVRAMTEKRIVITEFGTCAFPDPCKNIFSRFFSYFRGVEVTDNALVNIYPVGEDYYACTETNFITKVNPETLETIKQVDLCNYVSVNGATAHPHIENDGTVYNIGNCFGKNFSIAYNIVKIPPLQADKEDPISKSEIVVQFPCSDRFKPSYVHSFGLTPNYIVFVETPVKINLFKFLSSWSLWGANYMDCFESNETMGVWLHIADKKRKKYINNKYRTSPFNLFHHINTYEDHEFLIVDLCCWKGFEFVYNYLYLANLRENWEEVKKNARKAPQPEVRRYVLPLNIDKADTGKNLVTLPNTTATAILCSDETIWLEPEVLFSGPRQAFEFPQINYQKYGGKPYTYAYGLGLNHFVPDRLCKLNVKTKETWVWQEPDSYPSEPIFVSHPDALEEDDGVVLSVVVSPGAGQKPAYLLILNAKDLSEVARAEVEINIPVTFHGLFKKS
T2 sequence (Q28175 whole entry): as above

Consider `CC1=C(/C=C/C(C)=C/C=C/C(C)=C/C(=O)Nc2ccc(O)cc2)C(C)(C)CCC1` [N-(4-hydroxyphenyl)retinamide, reference compound], for which, in data set [1] (membranes pre-incubated with the inhibitor before vitamin A (FIG. 8)), the “inhibition of 11-cis-retinol formation” value was “substantially weaker”. The Kd on RPE65 (setting [2]) was around 3550 nM.

For `CC1=C(/C=C/C(C)=C/C=C/C(C)=C\C(=O)O)C(C)(C)CCC1` [13-cis-retinoic acid], the “inhibition of 11-cis-retinol formation” value in data set [1] (membranes pre-incubated with vitamin A before inhibitor, 60 μM, data not shown) is on record as “not susceptible to inhibition”.

With `CCCCCCCCCCCCCCCC(=O)OC/C=C(C)/C=C/C=C(C)/C=C/C1=C(C)CCCC1(C)C` [retinyl palmitate], the Kd at RPE65 (antagonist of RPE65, read-out: KD) is 47 nM; on RPE65 (setting [2]) it was 47 nM; at mouse RPE65 it was 47 nM; on sRPE65, around 1200 nM.

For `CC1=C(/C=C/C(C)=C/C=C/C(C)=C/CO)C(C)(C)CCC1` [all-trans-retinol, reference compound], the Kd on sRPE65 is around 65 nM.

B1: mRPE65: membrane-associated, palmitoylated form of RPE65; acts as palmitoyl donor for LRAT (protein, UniProt Q16518 2-533, looked up)
Retinoid isomerohydrolase: SIQVEHPAGGYKKLFETVEELSSPLTAHVTGRIPLWLTGSLLRCGPGLFEVGSEPFYHLFDGQALLHKFDFKEGHVTYHRRFIRTDAYVRAMTEKRIVITEFGTCAFPDPCKNIFSRFFSYFRGVEVTDNALVNVYPVGEDYYACTETNFITKINPETLETIKQVDLCNYVSVNGATAHPHIENDGTVYNIGNCFGKNFSIAYNIVKIPPLQADKEDPISKSEIVVQFPCSDRFKPSYVHSFGLTPNYIVFVETPVKINLFKFLSSWSLWGANYMDCFESNETMGVWLHIADKKRKKYLNNKYRTSPFNLFHHINTYEDNGFLIVDLCCWKGFEFVYNYLYLANLRENWEEVKKNARKAPQPEVRRYVLPLNIDKADTGKNLVTLPNTTATAILCSDETIWLEPEVLFSGPRQAFEFPQINYQKYCGKPYTYAYGLGLNHFVPDRLCKLNVKTKETWVWQEPDSYPSEPIFVSHPDALEEDDGVVLSVVVSPGAGQKPAYLLILNAKDLSEVARAEVEINIPVTFHGLFKKS
modifications: palmitoylated membrane-associated form
notes: membrane-associated, palmitoylated form of RPE65; acts as palmitoyl donor for LRAT
As for B1, in the data set with tLRAT (5 μM tLRAT, 5 μM all-trans-retinol, sigmoidal kinetics, read-out: KM (Kapp) as palmitoyl donor), the Michaelis constant (Km) turned out to be 0.03 µM. Moreover, the “N (Hill plot)” value in the data set with tLRAT (tLRAT catalyzed palmitoyl transfer to vitamin A) is recorded as 2.54.
